From patent publication US20190256827A1, “EPIGENOME EDITING SYSTEMS AND METHODS” (STC.UNM, priority 2017, published 2019) come the findings set out here.

Holding throughout (assay type): cell-based, human
For experiment [1], the system named is HBA locus in HEK293T cells. Nature of the experiment: ChIP-qPCR of FLAG-ABI-P300 and H3K27Ac at the HBA locus. The settings on record: HBA sgRNAs; ABA treatment for 48 hours. As to the method:
To determine if the new method can be used to modify H3K27Ac at other gene loci, sgRNAs were designed that target the promoter region of other genes with low expression levels in HEK293T cells, including GRM2, HBA and MYOD1 (Table 1).
Human embryonic kidney cell HEK293T (American Type Culture Collection, Manassas, Va.) was cultured in Dulbecco's modified Eagle's medium (DMEM) (Gibco) with 10% FBS (Atlanta Biologicals), 1× GlutaMax (Gibco, Thermo Fisher Scientific, Inc., Waltham, Mass.), and 1× penicillin/streptomycin (Pen/Strep; Gibco, Thermo Fisher Scientific, Inc., Waltham, Mass.). Cells (100,000/ml) were plated in 24-well or 10-cm cell culture plate the day before transfection. For each well of 24-well plate transfection, 500 ng of dCas9-PYL-HA, 420 ng of FLAG-ABI-P300, and a total amount of 200-ng mix of gRNAs, with a 50-ng per each gRNA, were mixed with 50×(v/w) Opti-MEM (Gibco, Thermo Fisher Scientific, Inc., Waltham, Mass.), then incubate with the same volume of 3 μg PEI-Opti-MEM solution for 20 minutes at room temperature. Then, 100 μL of PEI-combined plasmids were added to every single well of 24-well plate and cultured for 24 hours before experiments were performed. For a 10 cm plate, 1 mL of PEI-combined plasmids were needed. After six hours transfection, cells were washed and incubated for another 1-72 hours before experiments were performed. […]
(In general: Real-time PCR tracks product formation cycle by cycle.)

Experiment [2] deals with MYOD1 locus in HEK293T cells. Nature of the experiment: ChIP-qPCR of FLAG-ABI-P300 and H3K27Ac at the MYOD1 locus. To be noted: MYOD1 sgRNAs; ABA treatment for 48 hours.
For experiment [3], the system named is GAL4DBD-ABI/VP16AD-PYL, inducible luciferase reporter in HEK293T cells. Nature of the experiment: Inducible luciferase reporter assay, ABA-responsive system (orthogonality). To be noted: treated with IAA or ABA or DMSO for 24 hours. Here is the method:
To ensure that IAA and ABA could be used to independently control two histone modification editing events, the orthogonality between these two systems was tested. HEK293T cells were co-transfected with either GAL4DBD-TIR1*/VP16AD-AID (responsive to IAA) or GAL4DBD-ABI/VP16AD-PYL (responsive to ABA), and an inducible luciferase reporter construct. This was followed by treating cells with either IAA or ABA (or DMSO as a control) for 24 hours. […] To test the reversibility of IAA-induced dimerization, in which it was critical to achieve precise temporal control, HEK293T cells were co-transfected with GAL4DBD-TIR1*, VP16AD-AID, and an inducible luciferase expression construct, and then treated cells with 50 μM IAA for 24 hours. Cells were then washed with fresh media without IAA to remove the inducer (or no washing as a control). They were then harvested for luciferase assays after washing.
(In general: Reporter assays use an easily measured gene product as a stand-in for the process of interest.)

On to `CC1=CC(=O)CC(C)(C)[C@@]1(O)/C=C/C(C)=C\C(=O)O` [ABA, abscisic acid], for which, in experiment [1], the “enrichment of FLAG-ABI-P300 at the HBA locus” value is “causes the enrichment” and the “enrichment of H3K27Ac at the HBA locus” value is “causes the enrichment”. In addition, in experiment [2], the “enrichment of FLAG-ABI-P300 at the MYOD1 locus” value is “causes the enrichment” and the “enrichment of H3K27Ac at the MYOD1 locus” value is recorded as “causes the enrichment”. Further, the “luciferase expression, ABA-responsive system” value in experiment [3] is given as “Only the proper combination of inducer with corresponding binding proteins could induce luciferase expression”.
